Test results as given in US7662852B2, “Compounds and preparations having antiviral effect” (Lead Chemical Co., Ltd., priority 2003, dated 2010).

How the values were obtained:
HIV-1 IIIB = conditions: for Anti-HIV Activity EC50: MT-4 cell infected with T-cell tropic strain HIV-1 IIIB, MOI 0.01, 5 days, MTT; for Safety Index S.I. CC50/EC50 / anti-HIV activity in vitro (in words): MT-4 cell, HIV-1 IIIB
Description: (§1) For this experiment, human T-cell leukemia virus I (HTLV-I) infected T cell strain, MT-4 cell and T cell leukemia cell strain, MOLT-4 (clone No. 8) cell, HIV-1 continuous infection cell, MOLT-4/IIIB cell were used. The cell was cultured in RPMI-1640 medium (SIGMA) supplemented with 10% inactivated fetal calf plasma (FCS) (MOREGATE, Australia), 100 μg/ml streptomycin and 100 U/ml penicillin G (SIGMA) under a condition of 5% CO2 and 37° C. Subculture was performed every three days by controlling the density to 30×10^4 cells/ml.
HIV-1 IIIB was prepared from the supernatant of MOLT-4/IIIB cell.
MOLT-4/IIIB cell was controlled to a density of 30×10^4 cells/ml and then the culture was started. The cultured liquid was collected three days later, and centrifuged at 3000 rpm for 10 minutes at 4° C. […] These supernatants were passed through 0.45 μm filter. The virus stocks were frozen and stored at −80° C. The amount of virus was adjusted depending on an amount of p24.
• 1) in vitro activity: A phorbol derivative was dissolved in an amount of 1.0 mg in 1.0 ml of DMSO to obtain a concentrated solution.
(§2) The anti-HIV activity of each sample to be tested was evaluated by measuring inhibition activity against cytopathogenicity induced by HIV-1 according to MTTassay. The assay was performed in a triplicate mode, and anti-HIV activity and cytotoxicity were measured simultaneously.
(§3) 96-well plate was used, 10% FCS/RPMI-1640 medium was added in inner 60 wells in an amount of 100 μl/well, and in outer 36 wells in an amount of 200 μl/well in order to prevent evaporation.
(§4) The samples to be tested that were adjusted with RPMI-1640 medium were added in an amount of 25 μl/well in the first lane of the inner 60 wells, and 5-fold stepwise dilution series were prepared by manipulating pipette. In addition, in the last lane, no sample to be tested was added and regarded as control. MT-4 cell suspended in 30×10^4 cells/ml was prepared in two flasks, and the cells in one flask were infected with HIV-1 IIIB in a multiplicity of infection (MOI) of 0.01. The infected or non-infected MT-4 cells were immediately added to samples to be tested in an amount of 100 μl/ml, and cultured under a condition of 5% CO2 and 37° C.
5 days later, the viability of cells was measured based on MTT method by use of Titertek Multiskan.

MT-4 cell = conditions: non-infected MT-4 cell, 5 days, MTT
Description: as §1, §2, §3, §4
5 days later, the viability of cells was measured based on MTT method by use of Titertek Multiskan. MTT adjusted to 7.5 mg/ml with PBS (Ca++, Mg++*free phosphate-buffered saline) was added in an amount of 20 μl/well, and cultured under a condition of 5% CO2 and 37° C., 150 μl of the cultured supernatant was removed and then 100 μl of cytolysis solution (5% (v/v)TritonX-100/acid isopropanol) was added and stirred on a plate mixer for 30 minutes.
The absorbance (reference wavelength: 690 nm) was determined with a plate reader at 540 nm. […] Further, ratio of CC50 to EC50, that is, selective index (SI=CC50/EC50) was calculated.

[1] = 30 min
Description: (§5) • 1) in vitro activity: A phorbol derivative was dissolved in an amount of 1.0 mg in 1.0 ml of DMSO to obtain a concentrated solution. A sample to be tested was prepared by diluting the concentrated solution with a saline or a phosphate buffer to a predetermined concentration. • 2) stability in blood: 1 ml of blood from the abdominal aorta of 6- to 7-week-old BALB/c male mouse was withdrawn in an injector in which 0.1 ml of 3.8% sodium citrate was contained, and centrifuged at 5000 rpm for 10 minutes to obtain a plasma. The plasma was added in a solution to be tested in a proportion of 9:1 to prepare a diluted solution to be tested in a predetermined concentration of 10-fold dilution. The diluted solution was incubated at 37° C. for 30 minutes to prepare a sample to be tested. • 3) in situ activity: the above-mentioned sample to be tested 1) was orally administered to 6- to 7-week-old BALB/c male mouse in a dose of 1 mg/kg, at 20, 40 and 60 minutes after the administration, blood was withdrawn from the abdominal aorta under light anesthetization similarly to those of the 2) above, and the plasma from the blood was used as a sample to be tested.

HIV-1 JRCSF = conditions: NPB-11 1 ng/ml, PBMC infected with HIV-1 JRCSF, 7 days
Description: JRCSF was obtained by culturing 293T cell transfected with 15 μg of virus DNA and collecting the cultured liquid two days later. These supernatants were passed through 0.45 μm filter. The virus stocks were frozen and stored at −80° C. The amount of virus was adjusted depending on an amount of p24.
The infection to peripheral blood mononuclear cells (PBMC) of JRCSF and the evaluation of the anti-HIV activity were performed as follows. 1×10^6 cells/ml of PBMC was inoculated with JRCSF having 20 ng of p24, and the cells were washed 2 hours later. Thereafter, the cells were cultured in a culture liquid containing an agent to be tested for 7 days, and the antiviral activity was detected by measuring p24.
The anti-HIV effect was evaluated by determining the amount of p24 that is one of viral gap proteins and calculating its reduced amount.

[2] = mouse plasma 37° C. 30 min / living organism
Description: as §5

Row | Structure (SMILES) | Anti-HIV Activity EC50 (HIV-1 IIIB) | Safety Index S.I. CC50/EC50 (HIV-1 IIIB) | anti-HIV activity in vitro (in words) (HIV-1 IIIB) | Cytotoxicity CC50 (MT-4 cell) | Heat Stability 56° C., 30′ [1] | amount of viral protein p24 (antiviral effect) (HIV-1 JRCSF) | Biological Stability [2]
1 | CCCCCCCCCC(=O)OC12C(OC(=O)CC)C(C)C3(O)C(C=C(CO)CC4(O)C(=O)C(C)=CC43)C1C2(C)C (centres unmarked) [NPB-5] | >1000 ng ng/ml | 125< | lowered in the activity | 125 µg/mL |  |  | 
2 | CCCCCCCCCC(=O)OC12C(OC(C)=O)C(C)C3(O)C(C=C(CO)CC4(O)C(=O)C(C)=CC43)C1C2(C)C (centres unmarked) [Sample N-6, reference compound] | 1.7 ng/mL | 1920 | extremely strong anti-HIV activity | 3.2638 µg/mL | Stable |  | 
3 | CCCCCCCCCC(=O)OC12C(OCOC)C(C)C3(O)C(C=C(CO)CC4(O)C(=O)C(C)=CC43)C1C2(C)C (centres unmarked) [NPB-11] | 1.7 ng/mL | 4066 | strong activity | 6.9123 µg/mL |  | little viral protein was detected | 
4 | CCCCCCCCCC(=O)OC12C(OC)C(C)C3(O)C(C=C(CO)CC4(O)C(=O)C(C)=CC43)C1C2(C)C (centres unmarked) [NPB-13] | 118.9 ng/mL | 39 | weak activity | 4.6173 µg/mL |  |  | Stable
5 | CCCCCCCCCC(=O)OC12C(OC(=O)CCC)C(C)C3(O)C(C=C(CO)CC4(O)C(=O)C(C)=CC43)C1C2(C)C (centres unmarked) [NPB-9] | >1000 ng ng/ml | 125< | lowered in the activity | 125 µg/mL |  |  | 
6 | CCCCCCCCCC(=O)OC12C(OCC)C(C)C3(O)C(C=C(CO)CC4(O)C(=O)C(C)=CC43)C1C2(C)C (centres unmarked) [NPB-14] | 195.7 ng/mL | 17 | weak activity | 3.3240 µg/mL | unstable to heat compared with NPB-11 |  | Stable
